Where two headings read alike, the source gives them in different places.
What was measured:
Format in all cases: cell-based
FS MUC1 = test: Automated fixation/staining imaging assay, FS MUC1 spot cytoplasm (Example 3); details: 48 hour treatment time; for FS MUC1 Spot Cytoplasm Avg Emax: in % (unit assumed)
From the text: (§1) Prepared Renal Life Media by adding the supplements provided in the kit, substituting the FBS provided with Tet system approved FBS, and filtering the media (not including provided kit antibiotics). Thawed P6 vial(s) into T175 flasks 2 weeks prior to screening. Cells have to be passaged at least once after thaw before they can be used for screening. Hyperflasks can be used depending on the cell number needed. One confluent T175 flask should give at least 25 million cells. Cells should not be split beyond 1:2-1:4 and should only be trypsinized 1×/week. Cells must be spun down after each typsinization. Flasks must be confluent at time of plating. Flasks were incubated at 37° C., 5% CO2, 98% humidity. Cells can only be cultured for up to 10 passages before a new vial will need to be thawed.
(§2) • Day 1: Cells are plated. • Day 2: Compounds are transferred into assay plates with Echo (24 hours post-seeding) • Day 3: Begin preparing reagents for fixation and staining. • Day 4: Plates are fixed and stained (48 hour treatment time) on automated system and subsequently imaged on Opera Phenix. • Day 5: Data analysis and reporting is performed. Plate Preparation:
(§3) Calculated cell number needed and media volume needed for the run (MAX 20 plates/run). Cells were seeded into Synthemax-coated 384-well Cell Carrier plates at a density of 12,000 cells/well in 40 ul of Renal Life Media/well. Calculated for an extra 2-3 plate volumes to account for volume needed to fill the Combi cassette lines and left dead volume of cell suspension. (20 ul added with Combi after compound addition for total 60 ul assay volume, due to volume constraints of Echo transfer process). Trypsinized cells with 3 ml/T175 flask of TrypLE™ Express Enzyme 1X. Then spun down cells and resuspend in 10 ml media. Counted the cells using Nexcelom Cellometer K2. Prepared a mixture of 20 ul cell suspension/20 ul Cellometer AOPI Stain (#CS2-0106) and then add 20 ul of the 2 fold diluted mixture onto a Cellometer slide. Counted the cells by using the Dual Stain option and following the prompts. Recorded the live cell density, viability, and current passage number and date in notebook. Used the live cell density in calculating how to prepare the cell seeding suspension. Mixed the cell suspension thoroughly but gently. Once Combi cassette cleaned and cell suspension was made, dispensed 40 ul of cell suspension per well into the Synthemax-coated Cell Carrier assay plates. Immediately after seeding, stored the assay plates in the Liconic Incubator on the enclosed system in the 3100 automation lab, spaced plates out every other slot in stackers to maximize air flow.
(§4) Generated Arxspan Run ID to record compound transfer in CBIP. Spun down compound plates and assay plates 2000 RPM 10 sec. Load assay plates into Echo system incubator. Coordinated plate locations and record RUN ID with automation team member. Ran protocol for 100 nl transfer according to designated plate layout/template. When run was completed, added 20 ul of media/well for all assay plates with Combi in hood in Tissue culture room. Returned plates to the incubator in the enclosed system for 48 hour treatment time.
(§5) Heated up solution (100° C. on stir plate) and dissolved Roche Blocking reagent by stirring. The resulting solution was cloudy. Stored at 4° C. and used within one week or froze aliquots at −20° C. Combi 4: 1° Antibody Cocktail: Prepared the day of experiment. Swirled to mix. […] Prepared solution in Corning 250 ml conical flask and covered with tinfoil to protect from light.
(§6) Combi 5: 2° Antibody Cocktail: Prepared the day of experiment. Swirlrf to mix. […] Prepared solution in Corning 250 ml conical flask and covered with tinfoil to protect from light.
(§7) Removed media using BioTek plate washer. (PEKASP62) Moved plates to Combi. Combi 1. Dispensed 40 μl of 4% PFA (Combi on MEDIUM Speed). Incubated plates 20 minutes. Washed two times on BioTek plate washer. (PEK26X2)
(§8) Moved plates to Combi. Combi 2. […]

NUCB1 = test: Automated fixation/staining imaging assay, NUCB1 intensity (Example 3); details: 48 hour treatment time
From the text: as §1, §2, §3, §4, §5, §6, §7, §8

MUC1-fs = test: Immunofluorescence imaging of MUC1-fs in P cells (Example 2); details: for EC50: 48 hr incubation, MUC1-fs; for Emax / ECMax (%): 48 hr; for Emax: DMSO = 0, JQ1 = −100% activity, in %; for ECMax (%): DMSO = 0, JQ1 (250 nM) = −100% activity
Procedure: (§9) P cells were seeded 24 hr prior to compound treatment at a density of 12,000 cells/well in 384 well Cell Carrier Ultra plates (6057308, Perkin Elmer), pre-coated with 0.25 mg/mL Synthemax II SC Substrate (3535, Corning). Compounds were used at 5 doses (35, 3.5, 0.35, 0.035 and 0.0035 μM) for the primary screen and 10 doses (16, 5.6, 1.8, 0.6, 0.21, 0.07, 0.02, 0.008, 0.002 and 0.0008 μM) for the following screens. The compounds, in two replicates, were transferred from compound source plates to the cell plates using the HighRes Pin Tool. DMSO was used as a negative control and JQ1 (250 nM) (a bromodomain inhibitor) was chosen as a positive control, based on earlier studies showing its potent effect on reducing total MUC1 mRNA levels (data not shown). After 48 hr incubation, cells were fixed for 20 min in 4% PFA (Electron Microscopy Sciences) in PBS, washed twice, then permeabilized (10 min) with 0.5% Triton-X100 (X100-100ML, Sigma-Aldrich) in PBS and washed once more. Cells were blocked for 10 min at RT with Blocking solution (100 mM Tris HCL pH8; 150 mM NaCL; 5 g/L Blocking Reagent [11096176001, Roche]), then incubated 90 min at RT with one of the following primary antibodies in Roche Blocking solution: 1:500, monoclonal Fab-A-VSH anti-MUC1-fs, AbD22655.2, Bio-Rad; 1:2000, monoclonal mouse anti-MUC1 (214D4), 05-652-KC, Millipore; 1:1000, monoclonal, Rabbit anti-GM130 (D6B1) XP, 12480, Cell signaling technology. The primary antibody cocktail was incubated at RT for 1.5 hr, followed by four PBS wash cycles. The secondary antibody cocktail contained four components that were all prepared at a 1:1000 dilution in the Roche blocking solution and consisted of Alexa Fluor® 488-conjugated AffiniPure F(ab′)2 Fragment Goat anti-Human IgG, 109-546-097, Jackson Immunoresearch; Alexa Fluor® 647-conjugated Goat anti-Rabbit IgG, A-21246, Thermo Fisher Scientific®; Alexa Fluor® 546 Goat anti-mouse IgG, A-21123, Thermo Fisher Scientific® and Hoechst 33342 stain (62249, Thermo Fisher Scientific®). The secondary antibody cocktail was incubated at RT for 45 min, followed by four PBS wash cycles. Finally, plates were sealed with a Plate Loc plate and stored in Liconic incubator at 10° C. until imaging. Following image analysis, three parameters were selected, i) MUC1-fs and ii) MUC1-wt total cytoplasm intensity (averaged per cell) and iii) cell number as was detected by Hoechst 33342 stained nuclei. The levels of MUC1-fs and MUC1-wt found following DMSO and JQ1 were defined as 0 and −100% activity, respectively. The values obtained for all compounds were normalized accordingly. Cell number was normalized to DMSO control.

MUC1-wt = test: Immunofluorescence imaging of MUC1-wt in P cells (Example 2); details: for EC50: 48 hr incubation, MUC1-wt; for WT EMax / WT ECMax (%): 48 hr; for WT EMax: DMSO = 0, JQ1 = −100% activity, in %; for WT ECMax (%): DMSO = 0, JQ1 (250 nM) = −100% activity
Procedure: as §9

Row | Compound | IC50 (FS MUC1) [µM] | EC50 (MUC1-fs; read-out: EC50) [µM] | EC50 (MUC1-wt; read-out: WT EC50) [µM] | FS MUC1 Spot Cytoplasm Avg Emax (FS MUC1) | Emax (MUC1-fs) | WT EMax (MUC1-wt) | also measured
1 | N[C@]1(c2ccccc2)[C@@H]2CC[C@@H](C2)C12CCCC2 (racemic) [Compound 252] | 7.83 |  |  | −86.32 |  |  | EC50 (NUCB1): 11.2 µM; NUCB1 Intensity Avg Emax (NUCB1; in % (unit assumed)): −72.37
2 | CC(C)[C@@H]1[C@H]2CC[C@H](C2)[C@@]1(C)N (racemic) [Compound 256] | 6.45 |  |  | −65.11 |  |  | 
3 | CC(C)[C@H]1[C@H]2CC[C@H](C2)[C@]1(C)N (racemic) [Compound 255] | 8.25 |  |  | −67.5 |  |  | 
4 | C[C@@H]1CC[C@@]2(C1)[C@@H]1CC[C@@H](C1)[C@@H]2N.Cl [Compound 211-P2-B] |  |  |  |  |  |  | EC50 (MUC1-fs; read-out: EC50(Spot)): > 32 µM; ECMax (%) (MUC1-fs): −10.93%; EC50 (MUC1-wt; read-out: WT EC50 (Cytoplasm)): > 32 µM; WT ECMax (%) (MUC1-wt): 4.75%
5 | Cl.NC1C2CCC(C2)C12CC=CC2 (racemic) [Compound 248, rac-spiro[bicyclo[2.2.1]heptane-2,1′-cyclopentan]-3′-en-3-amine hydrochloride] |  | 0.11 | 9.8 |  | −83.1 | 36.5 | 
6 | Cl.N[C@@H]1[C@@H]2CC[C@@H](C2)C12CCC2 (racemic) [Compound 208, rac-spiro[bicyclo[2.2.1]heptane-3,1′-cyclobutan]-2-endo-amine hydrochloride] |  |  |  |  |  |  | EC50 (MUC1-fs; read-out: EC50(Spot)): 0.13 µM; ECMax (%) (MUC1-fs): −65.35%; EC50 (MUC1-wt; read-out: WT EC50 (Cytoplasm)): > 5.6 µM; WT ECMax (%) (MUC1-wt): ~125%
7 | CC[C@]1(Cc2ccccc2)[C@H]2CC[C@H](C2)[C@H]1N.Cl [Compound 219-P1, (1R,2R,3S,4S)-3-benzyl-3-ethylbicyclo[2.2.1]heptan-2-amine hydrochloride] |  | > 16 | > 16 |  | 5.6 | 12.4 | 
8 | Cl.N[C@@H]1[C@@H]2CC[C@@H](C2)C12CCCC(C(=O)N1CCOCC1)C2 (stereo partly drawn) [Compound 226, ((1S,3R,4R)-3-aminospiro[bicyclo[2.2.1]heptane-2,1′-cyclohexan]-3′-yl)(morpholino)methanone hydrochloride] |  | > 16 | > 16 |  | 7.8 | 9.0 | 
9 | CCC1(CC)[C@H]2CC[C@H](C2)[C@H]1N.Cl (racemic) [Compound 204] |  |  |  |  |  |  | EC50 (MUC1-fs; read-out: EC50(Spot)): 0.01 µM; ECMax (%) (MUC1-fs): −85.02%; EC50 (MUC1-wt; read-out: WT EC50 (Cytoplasm)): 1.01 µM; WT ECMax (%) (MUC1-wt): 190.26%
10 | CCC1(CC)[C@H]2CC[C@H](C2)[C@]1(N)c1cccs1.Cl [Compound 247, (1R,2R,4S)-3,3-diethyl-2-(thiophen-2-yl)bicyclo[2.2.1]heptan-2-amine hydrochloride] |  | > 16 | > 16 |  | −45.8 | 5.7 | 
11 | C[C@H]1CC[C@@]2(C1)[C@H]1CC[C@H](C1)[C@H]2N.Cl [Compound 210-P1-A] |  |  |  |  |  |  | EC50 (MUC1-fs; read-out: EC50(Spot)): 26.9 µM; ECMax (%) (MUC1-fs): −33.62%; EC50 (MUC1-wt; read-out: WT EC50 (Cytoplasm)): > 32 µM; WT ECMax (%) (MUC1-wt): 0.73%
12 | Cl.NC1C2CCC(C2)C12CC1CCC2C1 (racemic) [Compound 238, rac-2,2′-spirobi[bicyclo[2.2.1]heptan]-3-amine hydrochloride] |  |  |  |  | −96.4 | 68.9 | EC50 (MUC1-fs; hydrochloride, read-out: EC50): 0.032 µM; EC50 (MUC1-wt; hydrochloride, read-out: WT EC50): 0.74 µM
13 | CC1CCC2(CC1C)C1CCC(C1)C2N (racemic) [Compound 240, rac-3′,4′-dimethylspiro[bicyclo[2.2.1]heptane-2,1′-cyclohexan]-3-amine] |  | > 16 | > 16 |  | −34.8 | −11.1 | 

Second part, led by results:

Row | IC50 (FS MUC1) [µM] | EC50 (MUC1-fs; read-out: EC50) [µM] | EC50 (MUC1-wt; read-out: WT EC50) [µM] | Compound | FS MUC1 Spot Cytoplasm Avg Emax (FS MUC1) | Emax (MUC1-fs) | WT EMax (MUC1-wt) | also measured
14 | 0.0969 |  |  | CC(C)[C@@H]1[C@H]2CC[C@H](C2)[C@@]1(C)N (single isomer, unassigned) [Compound 257] | −74.94 |  |  | 
15 | 8.52 |  |  | CC(C)[C@H]1[C@H]2CC[C@H](C2)[C@@]1(C)N (racemic) [Compound 254] | −69.07 |  |  | 
16 | 0.24 |  |  | CC(C)[C@H]1[C@H]2CC[C@H](C2)[C@]1(C)N (single isomer, unassigned) [Compound 251] | −72.07 |  |  | 
17 |  | 0.962 | > 16 | NC1C2CCC(C2)C12CC1CC1C2 (racemic) [Compound 236, rac-spiro[bicyclo[2.2.1]heptane-2,3′-bicyclo[3.1.0]hexan]-3-amine] |  | −89.6 | −20.3 | 
18 |  | > 16 | > 16 | CC(=O)OC1CC2(CC1OC(C)=O)C1CCC(C1)C2N.Cl (racemic) [Compound 230, rac-3-aminospiro[bicyclo[2.2.1]heptane-2,1′-cyclopentane]-3′,4′-diyl diacetate hydrochloride] |  | −12.8 | −16.1 | 
19 |  | 5.99 | > 16 | NC1C2CCC(C2)C12CCCC2 (racemic) [Compound 232, rac-spiro[bicyclo[2.2.1]heptane-2,1′-cyclopentan]-3-amine] |  | −68.6 | 6.6 | 
20 |  | 10.1 | > 16 | COCC1CCCC2(C1)C1CCC(C1)C2N.Cl (racemic) [Compound 225-2, rac-3′-(methoxymethyl)spiro[bicyclo[2.2.1]heptane-2,1′-cyclohexan]-3-amine hydrogen chloride] |  | −20.7 | −11.1 | 
